# Test results published in patent US11247001B2, “Delivery device with cantilever structure and associated method of use” (De Motu Cordis Pty Ltd, priority 2016, dated 2022).
# Experiment: Particle deagglomeration: particle size distribution of the dose of dry powder emitted by the delivery device
# Format: physicochemical
# Settings: for emitted dose: dry powder emitted from delivery device comprising a container for storing dry powder (FIG. 28, FIG. 29); for deagglomerated to the typical inhalable range: share of dry powder, delivery device with container
# Text: The performance of the delivery device can be measured by how closely the particle size distribution of the emitted powder approaches the original distribution.
# An embodiment of the device that stored Mannitol on a corrugated reed was also compared to the embodiment of the device that stored and dispensed Mannitol from a blister.
emitted dose,deagglomerated to the typical inhalable range,"Fine Particle Fraction < 5 um (%) (Table 2, performance of device, N = 8, 68% CI)",FPF (device that dispensed from a blister),FPF (device that dispensed from the reed (corrugated reed)),FPF (device with a reed),"Fine Particle Fraction < 5 um (%) (device with reed, N = 10, 68% CI)",FPF (device without a reed),"Fine Particle Fraction < 5 um (%) (device without reed, same flow conditions, N = 10, 68% CI)","Fine Particle Fraction < 5 um (%) (powder stored in and dispensed from blister, N = 10, 68% CI)","Fine Particle Fraction < 5 um (%) (powder stored in and dispensed from corrugated reed, N = 5, 68% CI)",SMILES
72.4-92.0%,about 35%,,,,,,,,,,CNCC(O)c1ccc(O)c(O)c1 (stereo not shown) [Adrenaline]
75.3-86.1%,About 50%,48.0-60.9%,about 43%,about 44%,about 43%,38.9-47.4%,about 31%,26.8-35.1%,38.9-47.4%,40.6-48.2%,OC[C@@H](O)[C@@H](O)[C@H](O)[C@H](O)CO [Mannitol]
